Data: PMC8175851, “Effects of Genetic Polymorphism in CYP2D6, CYP2C19, and the Organic Cation Transporter OCT1 on Amitriptyline Pharmacokinetics in Healthy Volunteers and Depressive Disorder Patients” (Frontiers in Pharmacology, 2021)
Where two headings read alike, the source gives them in different places.

Columns and labels:
[1] = Pharmacokinetics of AT and NT in healthy volunteers after a single dose of 25 mg amitriptyline; assay type: in vivo, human; details: healthy volunteers; for half-life / Tmax / AUC(0-inf) / Cmax / AUC(0-t): human, plasma, po, 25 mg; for half-life / Tmax / AUC(0-inf) / Cmax / Vz / CL / AUC(0-t): single oral 25 mg AT; for AUC(0-inf): read-out: AUCinf; for AUC(0-t): read-out: AUC48h
From the text: In order to enrich the study sample with the less frequent functionally deficient OCT1 variants, participants were selected based on OCT1 genotype from an internal database at the Institute of Clinical Pharmacology of the University Medical Center Göttingen. All volunteers who are listed in the internal database had agreed to it and the database was approved by the ethics committee of the University of Göttingen. […] Additional subjects with heterozygous genotypes were included to provide a better understanding of the effects of specific variants and the mode of inheritance. All volunteers gave their written informed consent before participation in the study. The study was approved by the ethics committee of the University of Göttingen and the German Federal Institute for Drugs and Medical Devices (BfArM). It was registered at the clinical trials databases Clinicaltrials.gov (NCT02054299) and EudraCT (number 2012-003546-33). […] Volunteers who underwent regular drug treatments other than oral contraceptives or who suffered from any relevant chronic illness, as well as pregnant or lactating women, were not included. All subjects were healthy according to a detailed medical history, medical examination, electrocardiogram, urine status and clinical chemistry, and haematology parameters (sodium, potassium, total bilirubin, aspartate aminotransferase, alanine-aminotransferase, creatinine, C-reactive protein, thyroid-stimulating hormone, haemoglobin, erythrocyte, thrombocyte, and leucocyte counts). […] After centrifugation (13,000 rpm, 15 min, room temperature), two-thirds of the supernatant were transferred to a new reaction tube and evaporated at 40°C under nitrogen flow. The residue was reconstituted under shaking in 0.1% methanoic acid and briefly centrifuged before quantification using a Nexera UHPLC system (Shimadzu, Kyoto, Japan) coupled to an API 4000 tandem mass spectrometer (AB Sciex, Darmstadt, Germany). […] PerkinElmer, Rodgau, Germany) with a Phenomenex C18 pre-column (4 × 2 mm, Phenomenex, Aschaffenburg, Germany). […] The lower limit of quantification was 0.5 ng/ml for AT and 0.1 ng/ml for NT. […] The mass spectrometry detection parameters are listed in Supplementary Table S1. For the study in healthy volunteers, the primary endpoints were the AUCs of plasma AT and NT concentrations. Secondary endpoints were the other pharmacokinetic parameters of AT and NT, as well as heart rate, blood pressure, pupil size effects, and possible adverse events (headache, fatigue, visual or hearing impairments, restlessness, nausea, dizziness, dry mouth, tremor, as well as sensations of hypothermia and heart palpitations determined using a visual analogue scale test). Pharmacokinetic parameters were calculated by non-compartmental analysis using Phoenix 64 WinNonlin version 6.3 (Certara Inc., Princeton, NJ, United States). AUCinf of AT was calculated from the time of dosing using the linear/log trapezoidal rule and extrapolated to infinity based on the last predicted concentration and using the terminal elimination rate constant (lambda z). AUC of NT was calculated from the time of dosing until the last measurement at 48 h using the linear/log trapezoidal rule, as a decline in NT concentrations was not observed in some subjects and extrapolation to infinity thus not possible.

[2] = design: method as in Rudorfer and Potter, 1999; details: ref Rudorfer and Potter, 1999; cited from earlier work
OCT1 = assay: Plasma acylcarnitine concentrations as endogenous biomarkers for OCT1 activity in healthy volunteers; assay type: in vivo, human
Experimental: The peripheral venous blood samples of the healthy volunteers were treated with ethylenediaminetetraacetic acid (EDTA) for anticoagulation, centrifuged within 30 min after withdrawal (3,100 × g, 10 min, room temperature), and the plasma was stored at −20°C. For determining the plasma concentrations of AT, NT, IBC, 2-methylbutyrylcarnitine, and propionylcarnitine, plasma samples were mixed with twice the volume precipitation reagent of 10% (v/v) methanol and 90% (v/v) acetonitrile that included the corresponding deuterated internal standards AT-d6 (Biozol Diagnostica GmbH, Eching, Germany), NT-d3, IBC-d6, 2-methylbutyrylcarnitine-d9, and propionylcarnitine-d3 and d9 (all Santa Cruz Biotechnology, Heidelberg, Germany) and shaken for 15 min. After centrifugation (13,000 rpm, 15 min, room temperature), two-thirds of the supernatant were transferred to a new reaction tube and evaporated at 40°C under nitrogen flow. The residue was reconstituted under shaking in 0.1% methanoic acid and briefly centrifuged before quantification using a Nexera UHPLC system (Shimadzu, Kyoto, Japan) coupled to an API 4000 tandem mass spectrometer (AB Sciex, Darmstadt, Germany). Separation was done using a Brownlee SPP RP-Amide column (4.6 × 100 mm inner dimensions, 2.7 µm particle size; PerkinElmer, Rodgau, Germany) with a Phenomenex C18 pre-column (4 × 2 mm, Phenomenex, Aschaffenburg, Germany). For AT and NT, the mobile phase consisted of 0.1% (v/v) methanoic acid, 5.3% (v/v) methanol, and 31.7% (v/v) acetonitrile in water. For the carnitine derivatives, it consisted of 0.1% (v/v) methanoic acid, 0.43% (v/v) methanol, and 2.57% (v/v) acetonitrile in water. The lower limit of quantification was 0.5 ng/ml for AT and 0.1 ng/ml for NT. […]
In order to investigate the proposed suitability of IBC as a human in vivo biomarker for OCT1 activity ([Luo et al., 2020]), plasma concentrations of IBC as well as of 2-methylbutyrylcarnitine and propionylcarnitine were determined in a subgroup of 18 volunteers who participated in the study on AT pharmacokinetics. […]

[3] = both sexes, CYP2D6 activity 2 (n = 11), mean
[4] = both sexes, CYP2D6 activity 2.5 (n = 1), mean
[5] = both sexes, CYP2D6 activity 3 (n = 2), mean
[6] = CYP2C19 activity score 0 (n = 1), mean
[7] = CYP2C19 activity score 3 (n = 1), mean

Work on `CN(C)CCC=C1c2ccccc2CCc2ccccc21` [Amitriptyline, amitriptyline] yielded a half-life ([1]; both sexes, CYP2D6 activity 1.5 (n = 6), mean) of 19.8 h, a Tmax [1, 3] of 3.4 h and a half-life [1, 3] of 19.5 h. It also gave a Tmax [1, 4] of 6 h, a half-life [1, 4] of 14 h and a Tmax [1, 5] of 2 h. The half-life [1, 5] was 20.6 h, the AUC(0-inf) ([1]; both sexes, OCT1 genotype *1 / *1 (n 14), mean ± standard deviation) was 243 ± 88 ng·h/mL and the AUC(0-inf) ([1]; both sexes, OCT1 genotype *1 / *2 (n 3), mean ± standard deviation) was 273 ± 59 ng·h/mL. It also gave an AUC(0-inf) ([1]; both sexes, OCT1 genotype *1 / *3 (n 4), mean ± standard deviation) of 216 ± 87 ng·h/mL, an AUC(0-inf) ([1]; both sexes, OCT1 genotype *1 / *4 (n 2), mean ± standard deviation) of 187 ± 49 ng·h/mL and an AUC(0-inf) ([1]; both sexes, OCT1 genotype *2 / *2 (n 3), mean ± standard deviation) of 202 ± 92 ng·h/mL. It also gave an AUC(0-inf) ([1]; both sexes, OCT1 genotype *2 / *3 (n 4), mean ± standard deviation) of 189 ± 53 ng·h/mL, an AUC(0-inf) ([1]; both sexes, OCT1 genotype *2 / *5 (n 1)) of 298 ng·h/mL and an AUC(0-inf) ([1]; both sexes, OCT1 genotype *3 / *3 (n 3), mean ± standard deviation) of 172 ± 28 ng·h/mL. It also gave an AUC(0-inf) ([1]; both sexes, OCT1 genotype *3 / *4 (n 1)) of 215 ng·h/mL, a Cmax ([1]; both sexes, read-out: average Cmax) of 39 nM and a Cmax ([1]; both sexes, read-out: average Cmax (average peak plasma concentration)) of 10.7 ng/mL. The “peak concentration of unbound AT” value ([1]; 25 mg AT, from peak plasma concentration with 95% plasma protein binding) was 0.54 µg/L, the Vz ([1]; 0 active OCT1 alleles (n = 12)) was 3,828 ± 800 L and the Vz ([1]; 1 active OCT1 allele (n = 9)) was 3,610 ± 1,633 L. The Vz ([1]; 2 active OCT1 alleles (n = 14)) was 3,401 ± 1,041 L, the CL ([1]; CL/F = dose/AUCinf, 0 active OCT1 alleles (n = 12)) was 2.3 ± 0.6 L/min and the CL ([1]; CL/F = dose/AUCinf, 1 active OCT1 allele (n = 9)) was 2.0 ± 0.8 L/min. The CL ([1]; CL/F = dose/AUCinf, 2 active OCT1 alleles (n = 14)) was 1.9 ± 0.6 L/min, the CL ([1]; CL/F, CYP2C19 activity score 0 (n = 1), mean) was 1.30 L/min and the CL ([1]; CL/F, CYP2C19 activity score 1 (n = 5), mean) was 1.94 L/min. It also gave a CL ([1]; CL/F, CYP2C19 activity score 1.5 (n = 2), mean) of 1.5 L/min, a CL ([1]; CL/F, CYP2C19 activity score 2 (n = 16), mean) of 2.1 L/min and a CL ([1]; CL/F, CYP2C19 activity score 2.5 (n = 10), mean) of 2.2 L/min. The CL ([1]; CL/F, CYP2C19 activity score 3 (n = 1), mean) was 1.54 L/min, the CL ([1]; CL/F, CYP2D6 activity 0 (n = 3), mean) was 1.45 L/min and the CL ([1]; CL/F, CYP2D6 activity 0.5 (n = 2), mean) was 2.09 L/min. It also gave a CL ([1]; CL/F, CYP2D6 activity 1 (n = 10), mean) of 1.81 L/min, a CL ([1]; CL/F, CYP2D6 activity 1.5 (n = 6), mean) of 2.03 L/min and a CL ([1]; CL/F, CYP2D6 activity 2 (n = 11), mean) of 2.25 L/min. The CL ([1]; CL/F, CYP2D6 activity 2.5 (n = 1), mean) was 2.64 L/min, the CL ([1]; CL/F, CYP2D6 activity 3 (n = 2), mean) was 2.92 L/min and the Vz [1, 6] was 3,004 L. For the same compound, the Vz ([1]; CYP2C19 activity score 1 (n = 5), mean) was 3,525 L, the Vz ([1]; CYP2C19 activity score 1.5 (n = 2), mean) was 2,559 L and the Vz ([1]; CYP2C19 activity score 2 (n = 16), mean) was 3,696 L. For the same compound, the Vz ([1]; CYP2C19 activity score 2.5 (n = 10), mean) was 3,740 L, the Vz [1, 7] was 3,762 L and the Vz ([1]; CYP2D6 activity 0 (n = 3), mean) was 2,982 L. For the same compound, the Vz ([1]; CYP2D6 activity 0.5 (n = 2), mean) was 4,189 L, the Vz ([1]; CYP2D6 activity 1 (n = 10), mean) was 3,269 L and the Vz ([1]; CYP2D6 activity 1.5 (n = 6), mean) was 3,446 L. For the same compound, the Vz ([1]; CYP2D6 activity 2 (n = 11), mean) was 3,768 L, the Vz ([1]; CYP2D6 activity 2.5 (n = 1), mean) was 3,192 L and the Vz ([1]; CYP2D6 activity 3 (n = 2), mean) was 5,361 L. The AUC(0-t) [1, 6] was 229 ng·h/mL, the AUC(0-inf) [1, 6] was 321 ng·h/mL and the Cmax ([1]; CYP2C19 activity score 0 (n = 1), mean, read-out: Cmax) was 11.5 ng/mL. It also gave an AUC(0-t) [1, 7] of 198 ng·h/mL, an AUC(0-inf) [1, 7] of 271 ng·h/mL and a Cmax ([1]; CYP2C19 activity score 3 (n = 1), mean, read-out: Cmax) of 13.9 ng/mL. It also gave a Tmax [1, 6] of 4 h, a half-life [1, 6] of 26.7 h and a Tmax [1, 7] of 2 h. For the same compound, the half-life [1, 7] was 28.3 h, the “excreted unchanged in urine” value [2] was “less than 5%” and the “plasma IBC concentration relative to baseline IBC concentration” value (OCT1; 2 h after 25 mg AT administration) was 72%. The “plasma IBC concentration relative to baseline IBC concentration” value (OCT1; 4 h after 25 mg AT administration) was 67% and the “decrease in IBC plasma concentration observed in vivo” value (OCT1; after 25 mg AT) was 33%.
